Laboratory results published in PubChem BioAssay (NCI).
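Tested at 5 concentrations; 48 h exposure; 96-well plates; endpoints linearly interpolated, else capped at highest concentration. At the TGI there is no net growth.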

Tested on: OVCAR-3 ovarian
Experiment: NCI-60 cell line screen, 48 h

SMILES	TGI [µM]
C/C(=C/CC[C@]1(CO)CC[C@]2(CO)[C@H](CC[C@@H]3[C@@]4(C)CC[C@H](OC5OCC(O)C(O)C5OC5OC(CO)C(O)C(O)C5O)C(C)(C)[C@@H]4CC[C@]32C)[C@H]1O)CO (some centres not stated)	> 100
C=CCOC(=O)C1C2OC3(C(C(=O)OC)=C2C(=O)OC)c2ccccc2CCC13 (configuration not stated)	> 10
Cc1ccc(/C(O)=C/C(=O)C(=O)NN=C(c2ccccc2)c2ccccc2)cc1	> 100
CC[C@@H](/C=C\CCC(=O)C[C@H](O)CCC=C(C)C)O[Si](C(C)C)(C(C)C)C(C)C	> 100
Cc1ccc2nc(NC(=O)/C(Cc3nc4ccc(Cl)cc4[nH]c3=O)=N\NC(C)(C)C)sc2c1	> 100
Cc1cc(O)c(C(C)C)cc1C1(c2cc(C(C)C)c(O)cc2C)OC(=O)c2ccccc21	4.85
CCOC(=O)c1ccc(C(=O)C(C(C)=O)C(=O)OC(C)(C)C)[nH]1 (configuration not stated)	> 100
O=c1onc2c3ccccc3ncn12	> 100
CC(C)[C@@H]1ON1C(C)c1ccccc1 (some centres not stated)	> 100
O=C(Nc1cccc(F)c1)c1cc2ccc(O)cc2oc1=Nc1ccccc1F	14.7
COc1ccc(C(=O)c2[nH]c(Nc3ccc(Cl)cc3)c(C(=S)Nc3ccccc3)c2N)cc1	> 100
CC(C)(CC(O)C#N)/[N+]([O-])=[N+](\[O-])C(C)(C)CC(O)C#N (configuration not stated)	69.2
COc1ccc(-n2cnc3c(NC(CCSC)C(=O)O)ncnc32)cc1 (configuration not stated)	> 100
COC(=O)C1=C(C)N2[C@H](C(=O)O)CO[C@@]2(C)[C@H](C(=O)OC)[C@H]1c1cccc([N+](=O)[O-])c1	> 100
Cc1ccc(/C=C2\CCCC(CN3CCCCC3)C2=O)cc1 (configuration not stated)	3.39
CCOc1cc(NC(C)=O)ccc1C(=O)NN1C(=O)C(Cl)C1c1ccco1 (configuration not stated)	32
OC(c1ccc(-c2ccccc2)cc1)C(F)(F)c1nc2ccccc2o1 (configuration not stated)	> 100
COC(=O)c1cnn2c1n[n+]([O-])c1ccccc12	> 100
Nc1ccc(CCN2CCN(CCCc3ccccc3)CC2)cc1	> 100
C[C@H]1C=C2[C@@H]3CC(C)(C(=O)O)CC[C@]3(C)CC[C@]2(C)[C@]2(C)CC[C@H]3C(C)(C)[C@@H](OC(=O)c4cccc5c(=O)c6ccccc6[nH]c45)CC[C@]3(C)[C@@H]12 (some centres not stated)	> 100
COC(=O)c1c(OC(C)=O)ccc2c1c1c(OC(C)=O)c3ccccc3c(OC(C)=O)c1n2Cc1ccccc1	3.52
COc1ccc2oc(=N)c(C(=O)Nc3ccccn3)cc2c1	> 100
N#C/C(=C\c1c[nH]c2ccccc12)C(=O)c1ccc(O)c(O)c1	17.2
CN(C)CCCN1c2ccccc2CCc2ccc([N+](=O)[O-])cc21	> 100
CC(C)(C)OC(=O)NCCC1CN(C(=O)c2ccccc2)c2ccccc21 (configuration not stated)	65.3
COC(=O)C1=C(OC(=O)c2ccccc2)C(C(=O)OC)[C@]2(O)[C@@H](C(=O)OC)[C@H]1C[C@@H](c1ccccc1)[C@@H]2C(=O)OC (some centres not stated)	57.4
O=C(/C=C/c1csc(-c2ccccc2)n1)NCc1ccc(C(=O)NCc2ccccc2)cc1	> 100

Tested on: OVCAR-5 ovarian
Experiment: NCI-60 cell line screen, 48 h

SMILES	TGI [µM]
C/C(=C/CC[C@]1(CO)CC[C@]2(CO)[C@H](CC[C@@H]3[C@@]4(C)CC[C@H](OC5OCC(O)C(O)C5OC5OC(CO)C(O)C(O)C5O)C(C)(C)[C@@H]4CC[C@]32C)[C@H]1O)CO (some centres not stated)	> 100
C=CCOC(=O)C1C2OC3(C(C(=O)OC)=C2C(=O)OC)c2ccccc2CCC13 (configuration not stated)	> 10
Cc1ccc(/C(O)=C/C(=O)C(=O)NN=C(c2ccccc2)c2ccccc2)cc1	> 100
CC[C@@H](/C=C\CCC(=O)C[C@H](O)CCC=C(C)C)O[Si](C(C)C)(C(C)C)C(C)C	> 100
Cc1ccc2nc(NC(=O)/C(Cc3nc4ccc(Cl)cc4[nH]c3=O)=N\NC(C)(C)C)sc2c1	> 100
Cc1cc(O)c(C(C)C)cc1C1(c2cc(C(C)C)c(O)cc2C)OC(=O)c2ccccc21	5.92
CCOC(=O)c1ccc(C(=O)C(C(C)=O)C(=O)OC(C)(C)C)[nH]1 (configuration not stated)	> 100
O=c1onc2c3ccccc3ncn12	> 100
CC(C)[C@@H]1ON1C(C)c1ccccc1 (some centres not stated)	> 100
O=C(Nc1cccc(F)c1)c1cc2ccc(O)cc2oc1=Nc1ccccc1F	36.1
COc1ccc(C(=O)c2[nH]c(Nc3ccc(Cl)cc3)c(C(=S)Nc3ccccc3)c2N)cc1	> 100
CC(C)(CC(O)C#N)/[N+]([O-])=[N+](\[O-])C(C)(C)CC(O)C#N (configuration not stated)	97.2
COc1ccc(-n2cnc3c(NC(CCSC)C(=O)O)ncnc32)cc1 (configuration not stated)	> 100
COC(=O)C1=C(C)N2[C@H](C(=O)O)CO[C@@]2(C)[C@H](C(=O)OC)[C@H]1c1cccc([N+](=O)[O-])c1	> 100
Cc1ccc(/C=C2\CCCC(CN3CCCCC3)C2=O)cc1 (configuration not stated)	28.7
CCOc1cc(NC(C)=O)ccc1C(=O)NN1C(=O)C(Cl)C1c1ccco1 (configuration not stated)	36.4
OC(c1ccc(-c2ccccc2)cc1)C(F)(F)c1nc2ccccc2o1 (configuration not stated)	> 100
COC(=O)c1cnn2c1n[n+]([O-])c1ccccc12	> 100
Nc1ccc(CCN2CCN(CCCc3ccccc3)CC2)cc1	> 100
C[C@H]1C=C2[C@@H]3CC(C)(C(=O)O)CC[C@]3(C)CC[C@]2(C)[C@]2(C)CC[C@H]3C(C)(C)[C@@H](OC(=O)c4cccc5c(=O)c6ccccc6[nH]c45)CC[C@]3(C)[C@@H]12 (some centres not stated)	> 100
COC(=O)c1c(OC(C)=O)ccc2c1c1c(OC(C)=O)c3ccccc3c(OC(C)=O)c1n2Cc1ccccc1	19.8
COc1ccc2oc(=N)c(C(=O)Nc3ccccn3)cc2c1	> 100
N#C/C(=C\c1c[nH]c2ccccc12)C(=O)c1ccc(O)c(O)c1	> 100
CN(C)CCCN1c2ccccc2CCc2ccc([N+](=O)[O-])cc21	> 100
CC(C)(C)OC(=O)NCCC1CN(C(=O)c2ccccc2)c2ccccc21 (configuration not stated)	> 100
COC(=O)C1=C(OC(=O)c2ccccc2)C(C(=O)OC)[C@]2(O)[C@@H](C(=O)OC)[C@H]1C[C@@H](c1ccccc1)[C@@H]2C(=O)OC (some centres not stated)	73.9
O=C(/C=C/c1csc(-c2ccccc2)n1)NCc1ccc(C(=O)NCc2ccccc2)cc1	> 100

Tested on: SF-268 CNS
Experiment: NCI-60 cell line screen, 48 h

SMILES	TGI [µM]
C/C(=C/CC[C@]1(CO)CC[C@]2(CO)[C@H](CC[C@@H]3[C@@]4(C)CC[C@H](OC5OCC(O)C(O)C5OC5OC(CO)C(O)C(O)C5O)C(C)(C)[C@@H]4CC[C@]32C)[C@H]1O)CO (some centres not stated)	> 100
C=CCOC(=O)C1C2OC3(C(C(=O)OC)=C2C(=O)OC)c2ccccc2CCC13 (configuration not stated)	> 10
Cc1ccc(/C(O)=C/C(=O)C(=O)NN=C(c2ccccc2)c2ccccc2)cc1	> 100
CC[C@@H](/C=C\CCC(=O)C[C@H](O)CCC=C(C)C)O[Si](C(C)C)(C(C)C)C(C)C	> 100
Cc1ccc2nc(NC(=O)/C(Cc3nc4ccc(Cl)cc4[nH]c3=O)=N\NC(C)(C)C)sc2c1	> 100
Cc1cc(O)c(C(C)C)cc1C1(c2cc(C(C)C)c(O)cc2C)OC(=O)c2ccccc21	4.83
CCOC(=O)c1ccc(C(=O)C(C(C)=O)C(=O)OC(C)(C)C)[nH]1 (configuration not stated)	> 100
O=c1onc2c3ccccc3ncn12	> 100
CC(C)[C@@H]1ON1C(C)c1ccccc1 (some centres not stated)	> 100
O=C(Nc1cccc(F)c1)c1cc2ccc(O)cc2oc1=Nc1ccccc1F	15.4
COc1ccc(C(=O)c2[nH]c(Nc3ccc(Cl)cc3)c(C(=S)Nc3ccccc3)c2N)cc1	> 100
CC(C)(CC(O)C#N)/[N+]([O-])=[N+](\[O-])C(C)(C)CC(O)C#N (configuration not stated)	83.1
COc1ccc(-n2cnc3c(NC(CCSC)C(=O)O)ncnc32)cc1 (configuration not stated)	> 100
